Reference: patent US4990703A, “Novel tetrahydronaphthalene and indane derivatives” (Hoffmann-La Roche Inc., priority 1989, dated 1991)

Columns and labels:
[1] = tested on: keratin-filled utriculi of the rhino mouse; experiment: Anti-keratinizing activity in the rhino mouse; type: in vivo
Description: (A) The antikeratinizing activity can be determined on the rhino mouse model according to the following procedure. The skin of the rhino mouse is characterized by the presence of keratin-filled utriculi of the epidermis and subcutaneous cysts, both of which are derived from hair follicles. The administration of retinoids leads to a hyperproliferation of the epidermis and of the epithelial lining of the utriculi. The thickening of the epidermis and the reduction in the size of the utriculi lead to a normalization of the altered structure of the epithelial layer. The daily topical application of 0.1 ml/cm^2 skin of the rhino mouse of a 3% acetone solution of an active test compound over a period of 3 weeks or the thrice weekly oral administration in arachis oil over a period of weeks leads to a significant proliferation of the epidermis and a striking reduction of the keratin-filled utriculi.

[2] = tested on: chemically-induced breast tumours; experiment: Prophylaxis of chemically-induced breast tumours (dimethylbenz(a)anthracene); type: in vivo, Female Sprague-Dawley rats; conditions: 11 weeks
Method: (B) The activity in the prevention of chemically-induced breast tumours can be determined according to the following procedure. Female Sprague-Dawley rats are kept under temperature-controlled and light-controlled conditions, with free access to drinking water and feed. At the age of 50 days 15 mg of dimethylbenz(a)anthracene disolved in arachis oil are administered to each rat by means of a probang. The treatment with the test compounds begins 1 day after the administration of the carcinogen. The body weights of the test animals are recorded and the tumours are palpated weekly and measured with a vernier caliper. The volumes are calculated according to the formula [formula] in which D is the larger diameter of the tumour ellipsoid and d is the smaller diameter of the tumour ellipsoid. After 11 weeks the test is terminated and evaluated. In this test there are used in addition to 30 control animals, which receive exclusively normal feed the following two groups of test animals:
1. 33 rats to which are administered daily 30 mg/kg of test compound mixed with the feed.
2. 36 rats to which are administered daily 90 mg/kg of test compound mixed with the feed.

[3] = tested on: squamous metaplasia of the vaginal epithelium; experiment: Antimetaplastic activity in the rat (hormone-induced squamous metaplasia of the vaginal epithelium); type: in vivo, Female Holtzmann rats; conditions: oral; all-trans-retinoic acid = 1; from average effective dosages (Behrens and Karber)
Description: (D) The antimetaplastic activity can also be determined in rats according to the following method. Female Holtzmann rats weighing approximately 100 g are ovarectomized under Thiogenal narcosis after an adaptation period of 8 days and are used in the test after a further 14 days. In each case two animals are placed in a cage with free access to feed which contains approximately 2000 IU of vitamin A determined analytically. Prior to the oral administration of the test compound the animals are treated subcutaneously each day on 6 successive days with 1 μg of estradiol benzoate and 250 μg of testosterone propionate dissolved in 0.1 ml of sesame oil. […] 2 days after the oral administration of the test substance the result of the reaction is again read off on the vaginal epithelium. The area method according to Behrens and Karber is employed to calculate the average effective dosages.

[4] = tested on: testosterone-stimulated sebum secretion; experiment: Inhibition of sebum production in the rat; type: in vivo, rat (castrated male); conditions: 100 μg/rat p.o., daily for 14 days
Method: (E) The activity of the compounds I on sebum secretion in rats was determined according to the following procedure. Male rats of approximately 50-60 g body weight were castrated at the age of 21-22 days. One week after this operation the rats were washed in a cleansing solution in order to remove sebum which was excreted prior to the test period. Only the carrier materials used were administered to one group of rats. A further group of rats also simultaneously received 100 μg of testosterone propionate in 0.2 ml of sesame oil per rat and day. To a further group of rats there were administered daily per rat 100 μg of testosterone propionate in 0.2 ml of sesame oil subcutaneously and the test compounds in various dosages in 0.2 ml of propylene glycol orally. The rats were thus-treated for 14 days. On the 15th day the sebum from the skin surface and the pelt was removed by immersing the entire body of the test animals in a determined volume of acetone and bathing therein for 2 minutes. An aliquot of the solvent bath was evaporated and the solid residue was determined gravimetrically. The inhibition of the testosterone-stimulated increase in the serum secretion in comparison to the corresponding values from rats treated only with testosterone propionate was used as the measurement for the activity.

[5] = tested on: transplantable chondrosarcoma of the rat; experiment: Activity on transplantable chondrosarcoma of the rat; type: in vivo, rat (albino rats); conditions: five times per week for 24 days
Method: (C) Furthermore, the activity on tumours can be determined on the transplantable chondrosarcoma of the rat according to the following method. The solid tumour of a donor animal is finely minced and suspended in phosphate buffer/sodium chloride solution. 0.5 ml of the 30% tumour suspension is implanted subcutaneously into albino rats.
The transplanted rats are divided into test groups of in each case 8 animals. The test compounds are suspended in arachis oil and administered orally five times per week for 24 days. The tumours are excised and weighed on day 24. The results are expressed in the quotient C/T which is calculated as follows: [formula]

Compound	Diameter of the utriculus ([1]; 400 mg/kg p.o.)	Reduction (of the diameter of the utriculus) ([1]; 400 mg/kg p.o.)	Average number of tumours per rat ([2]; 30 mg/kg p.o. daily in feed)	Average tumour volume per rat in mm^3 [% of controls] ([2]; 30 mg/kg p.o. daily in feed)	Rats with tumours ([2]; 30 mg/kg p.o. daily in feed)	Average number of tumours per rat ([2]; 90 mg/kg p.o. daily in feed)	Average tumour volume per rat in mm^3 [% of controls] ([2]; 90 mg/kg p.o. daily in feed)	Rats with tumours ([2]; 90 mg/kg p.o. daily in feed)	Relative activity [3]	Inhibition of testosterone-stimulated sebum secretion [4]	Quotient C/T of tumour weight of the untreated control animals and of the treated animals ([5]; 120 mg/kg p.o.)	Diameter of the utriculus ([1]; 133 mg/kg p.o.)	Reduction (of the diameter of the utriculus) ([1]; 133 mg/kg p.o.)	Quotient C/T of tumour weight of the untreated control animals and of the treated animals ([5]; 40 mg/kg p.o.)
C/C(=C\c1ccc(F)cc1)c1ccc2c(c1)C(C)(C)CCC2(C)C [a, (E)-6-(p-fluoro-α-methylstyryl)-1,2,3,4-tetrahydro-1,1,4,4-tetramethylnaphthalene]	117 μm	21%	47 % of controls	22 % of controls	72 % of controls	42 % of controls	22 % of controls	69 % of controls	0.87	67%				
CC1=C(/C=C/C(C)=C/C=C/C(C)=C/C(=O)O)C(C)(C)CCC1 [all-Trans-retinoic acid, reference compound]									1					
C/C(=C\c1ccc(Br)cc1)c1ccc2c(c1)C(C)(C)CCC2(C)C [b, (E)6-(p-Bromo-methylstyryl)-1,2,3,4-tetrahydro-1,1,4,4-tetramethylnaphthaene]	131 μm	19%	87 % of controls	90 % of controls	106 % of controls	87 % of controls	43 % of controls	99 % of controls	0.77	65%	1.6			
COc1ccc(/C=C(\C)c2ccc3c(c2)C(C)(C)CCC3(C)C)cc1 [c, 1,2,3 4-tetrahydro-6-[(E)-p-methoxy-α-methylstyryl]-1,1,4,4-tetramethylnaphthalene]	61 μm	51%	56 % of controls	78 % of controls	92 % of controls	43 % of controls	32 % of controls	85 % of controls	1.04		24.0	91 μm	27%	2.0
C/C(=C\c1ccccc1)c1ccc2c(c1)C(C)(C)CC2(C)C [d, 1,1,3,3-tetramethyl-5-[(E)-α-methylstyryl]indane]												125 μm	27%	
C/C(=C\c1ccc(I)cc1)c1ccc2c(c1)C(C)(C)CCC2(C)C [e, (E)-6-[p-iodo-α-methylstyryl]-1,2,3,4-tetrahydro-1,1,4,4-tetramethylnaphthalene]										71%				
C/C(=C\c1ccc(Cl)cc1)c1ccc2c(c1)C(C)(C)CCC2(C)C [f, (E)-6-[p-chloro-α-methylstyryl]-1,2,3,4-tetrahydro-1,1,4,4-tetramethylnaphthalene]											1.6			
CCCCCCCCc1cc2c(cc1C(C)=Cc1ccccc1)C(C)(C)CCC2(C)C [g, 1,2,3,4-tetrahydro-1,1,4,4-tetramethyl-6-(α-methylstyryl)-7-octylnaphthalene]										71%				
